Activity and MIC data for five compounds are collected here from ChEMBL document CHEMBL1255407, “High diversity of extended-spectrum beta-lactamases in Escherichia coli isolates from Italian broiler flocks” (2010).

Molecules are shown by their SMILES.

The subject of one test is Escherichia coli. Put plainly: Antimicrobial activity against Escherichia coli isolates producing extended-spectrum beta-lactamases bla(CTX-M-1), bla(CTX-M-32) and bla(SHV-12) assessed as resistant isolates isolated from Italian broiler flocks by disk diffusion method.
As for `O=C(O)c1cn(C2CC2)c2cc(N3CCNCC3)c(F)cc2c1=O` [CIPROFLOXACIN], the Activity is on record as 44%.
Same read-out and setting: with `CCn1cc(C(=O)O)c(=O)c2ccc(C)nc21` [NALIDIXIC ACID] the figure was 83%; with `CN(C)[C@@H]1C(O)=C(C(N)=O)C(=O)[C@@]2(O)C(O)=C3C(=O)c4c(O)cccc4[C@@](C)(O)[C@H]3C[C@@H]12` [TETRACYCLINE], 94%.

Another test has as its system Escherichia coli. Put plainly: Antimicrobial activity against Escherichia coli isolates producing extended-spectrum beta-lactamases bla(CTX-M-1), bla(CTX-M-32) and bla(SHV-12) isolated from Italian broiler flocks by agar dilution method. It counts as functional.
Regarding `CO/N=C(\C(=O)N[C@@H]1C(=O)N2C(C(=O)O)=C(COC(C)=O)CS[C@H]12)c1csc(N)n1` [CEFOTAXIME], the MIC was at least 2 µg/mL.
Same read-out and setting: with `CO/N=C(\C(=O)N[C@@H]1C(=O)N2C(C(=O)O)=C(CSC(=O)c3ccco3)CS[C@H]12)c1csc(N)n1` [CEFTIOFUR] the figure was at least 8 µg/mL; with `O=C(O)c1cn(C2CC2)c2cc(N3CCNCC3)c(F)cc2c1=O` [CIPROFLOXACIN], below 0.03 µg/mL.
